Measurements: ChEMBL document CHEMBL3872247, “Discovery of dual positive allosteric modulators (PAMs) of the metabotropic glutamate 2 receptor and CysLT1 antagonists for treating migraine headache” (Bioorg Med Chem Lett, 2017)
pEC50, pIC50, pKi: −log10 of the molar value.

Assays:
[1] = Cmax in rat at 1 mg/kg, po; assay type: ADME, organism-based; parameters: dose 1 mg/kg, route oral; conditions: in vivo
[2] = molecular target: Metabotropic glutamate receptor 5 (Homo sapiens, UniProt P41594); test: Agonist activity at recombinant human mGlu5 expressed in hamster AV12 cells expressing EAAT1 assessed as increase in intracellular calcium level measured after 24 hrs by FLIPR assay; assay type: functional, cell-based
Metabotropic glutamate receptor 5, sequence (P41594 whole entry): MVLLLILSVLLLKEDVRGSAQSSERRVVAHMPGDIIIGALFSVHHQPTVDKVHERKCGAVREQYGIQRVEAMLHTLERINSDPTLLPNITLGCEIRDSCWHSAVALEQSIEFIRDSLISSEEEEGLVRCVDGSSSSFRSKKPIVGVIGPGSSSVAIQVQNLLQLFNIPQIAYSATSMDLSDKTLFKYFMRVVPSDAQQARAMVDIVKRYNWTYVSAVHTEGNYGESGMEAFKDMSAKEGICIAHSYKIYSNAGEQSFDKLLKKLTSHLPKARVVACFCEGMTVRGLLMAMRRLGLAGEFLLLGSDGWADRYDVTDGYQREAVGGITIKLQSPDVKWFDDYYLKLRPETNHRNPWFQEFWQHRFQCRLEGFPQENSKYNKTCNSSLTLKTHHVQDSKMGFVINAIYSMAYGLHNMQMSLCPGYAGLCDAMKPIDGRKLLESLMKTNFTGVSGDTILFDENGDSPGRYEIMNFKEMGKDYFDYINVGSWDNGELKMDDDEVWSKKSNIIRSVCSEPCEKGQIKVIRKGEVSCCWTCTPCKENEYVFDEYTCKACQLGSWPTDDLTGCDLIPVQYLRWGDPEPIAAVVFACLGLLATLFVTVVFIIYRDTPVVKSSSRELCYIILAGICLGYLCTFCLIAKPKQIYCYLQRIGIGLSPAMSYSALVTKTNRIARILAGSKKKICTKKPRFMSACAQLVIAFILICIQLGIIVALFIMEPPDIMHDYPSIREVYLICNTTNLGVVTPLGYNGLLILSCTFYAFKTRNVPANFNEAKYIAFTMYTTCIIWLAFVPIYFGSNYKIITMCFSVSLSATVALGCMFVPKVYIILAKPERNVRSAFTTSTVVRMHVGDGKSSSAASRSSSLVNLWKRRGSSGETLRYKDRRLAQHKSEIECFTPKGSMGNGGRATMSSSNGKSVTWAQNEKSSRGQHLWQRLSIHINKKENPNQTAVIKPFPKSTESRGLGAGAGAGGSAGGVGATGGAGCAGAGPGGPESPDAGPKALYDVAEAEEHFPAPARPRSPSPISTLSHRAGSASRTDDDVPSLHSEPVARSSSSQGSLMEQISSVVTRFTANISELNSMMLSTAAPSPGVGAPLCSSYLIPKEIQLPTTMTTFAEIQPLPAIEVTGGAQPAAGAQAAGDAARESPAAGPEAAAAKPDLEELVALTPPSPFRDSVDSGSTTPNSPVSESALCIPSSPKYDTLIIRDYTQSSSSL

[3] = molecular target: Cytochrome P450 2C9 (Homo sapiens, UniProt P11712); test: Inhibition of CYP2C9 (unknown origin); assay type: ADME
Cytochrome P450 2C9, sequence (P11712 whole entry): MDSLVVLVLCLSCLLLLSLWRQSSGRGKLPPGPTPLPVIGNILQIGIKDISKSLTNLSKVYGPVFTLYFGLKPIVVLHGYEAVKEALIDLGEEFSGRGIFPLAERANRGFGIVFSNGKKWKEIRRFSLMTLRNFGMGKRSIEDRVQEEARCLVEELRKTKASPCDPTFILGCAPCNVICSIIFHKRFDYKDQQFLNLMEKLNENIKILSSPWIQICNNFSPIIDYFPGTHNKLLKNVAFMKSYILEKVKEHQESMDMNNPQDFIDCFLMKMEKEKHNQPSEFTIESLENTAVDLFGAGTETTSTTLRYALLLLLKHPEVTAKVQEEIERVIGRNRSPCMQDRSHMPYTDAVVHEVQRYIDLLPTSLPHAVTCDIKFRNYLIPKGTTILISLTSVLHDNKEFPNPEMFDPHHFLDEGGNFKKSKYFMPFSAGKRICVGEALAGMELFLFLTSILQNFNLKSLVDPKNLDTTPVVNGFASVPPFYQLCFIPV

[4] = Volume of distribution in rat at 1 mg/kg, iv; assay type: ADME, organism-based; conditions: in vivo
[5] = molecular target: 5-hydroxytryptamine receptor 1E (Homo sapiens, UniProt P28566); test: Activity at human 5HT1E receptor
[6] = molecular target: T1, Metabotropic glutamate receptor 2 (Homo sapiens, UniProt Q14416); test: Antagonist activity at recombinant human mGlu2 receptor expressed in hamster AV12 cells expressing EAAT1 assessed as inhibition of glutamate-induced increase in intracellular Ca2+ level measured after 24 to 48 hrs by FLIPR assay; assay type: functional, cell-based
[7] = molecular target: 5-hydroxytryptamine receptor 7 (Homo sapiens, UniProt P34969); test: Displacement of [3H]LSD from human 5HT7 receptor expressed in CHO cells after 120 mins by scintillation counting method; assay type: cell-based
5-hydroxytryptamine receptor 7, sequence (P34969 whole entry): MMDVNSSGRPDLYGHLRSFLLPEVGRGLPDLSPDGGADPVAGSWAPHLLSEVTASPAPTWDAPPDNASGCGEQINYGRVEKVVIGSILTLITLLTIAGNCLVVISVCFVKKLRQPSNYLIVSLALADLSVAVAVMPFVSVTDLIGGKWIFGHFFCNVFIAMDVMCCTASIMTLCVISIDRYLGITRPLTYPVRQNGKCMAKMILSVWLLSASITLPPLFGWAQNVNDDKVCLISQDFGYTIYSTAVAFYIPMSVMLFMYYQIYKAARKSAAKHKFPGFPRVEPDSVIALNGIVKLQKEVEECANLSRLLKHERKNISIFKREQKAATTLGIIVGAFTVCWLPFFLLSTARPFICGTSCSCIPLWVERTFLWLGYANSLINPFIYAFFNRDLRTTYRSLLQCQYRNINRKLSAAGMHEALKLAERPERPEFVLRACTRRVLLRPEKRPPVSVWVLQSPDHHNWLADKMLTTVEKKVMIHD

[8] = Half life in rat at 1 mg/kg, po; assay type: ADME, organism-based; conditions: in vivo
[9] = molecular target: Metabotropic glutamate receptor 4 (Homo sapiens) (UniProt Q14833); test: Positive allosteric modulation of recombinant human mGlu4 receptor expressed in hamster AV12 cells expressing EAAT1 assessed as potentiation of glutamate-induced intracellular Ca2+ level at 20 uM after 24 hrs by FLIPR assay; assay type: functional, cell-based
[10] = molecular target: Beta-1 adrenergic receptor (Homo sapiens) (UniProt P08588); test: Displacement of [3H](-)CGP12177 from recombinant human beta1 adrenergic receptor expressed in HEK293 cells at 10 uM measured after 60 mins by scintillation counting method; assay type: cell-based
Beta-1 adrenergic receptor (Homo sapiens), sequence (P08588 whole entry, looked up): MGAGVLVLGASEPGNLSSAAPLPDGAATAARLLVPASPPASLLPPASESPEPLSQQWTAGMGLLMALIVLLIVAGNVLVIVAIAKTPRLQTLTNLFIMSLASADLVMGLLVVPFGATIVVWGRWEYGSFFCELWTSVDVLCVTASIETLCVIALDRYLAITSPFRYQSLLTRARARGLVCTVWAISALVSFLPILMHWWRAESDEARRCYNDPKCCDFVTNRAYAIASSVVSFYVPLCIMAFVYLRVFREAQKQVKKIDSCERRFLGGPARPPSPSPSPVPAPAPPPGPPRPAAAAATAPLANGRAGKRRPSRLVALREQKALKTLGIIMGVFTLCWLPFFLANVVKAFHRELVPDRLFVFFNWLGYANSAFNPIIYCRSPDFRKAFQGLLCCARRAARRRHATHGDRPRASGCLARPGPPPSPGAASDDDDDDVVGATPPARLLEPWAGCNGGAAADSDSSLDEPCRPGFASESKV

[11] = molecular target: 5-hydroxytryptamine receptor 2A (Homo sapiens, UniProt P28223); test: Activity at human 5HT2A receptor
[12] = molecular target: T1, Metabotropic glutamate receptor 2; test: Positive allosteric modulation of recombinant human mGlu2 receptor expressed in hamster AV12 cells expressing EAAT1 assessed as potentiation of glutamate-induced intracellular calcium level measured after 24 to 48 hrs by FLIPR assay relative to glutamate; assay type: functional, cell-based
[13] = Half life in dog at 1 mg/kg, po; assay type: ADME, organism-based, Canis lupus familiaris; conditions: in vivo
[14] = molecular target: 5-hydroxytryptamine receptor 5A (Homo sapiens, UniProt P47898); test: Displacement of human 5HT5A receptor expressed in HEK293 cells after 120 mins by scintillation counting method; assay type: cell-based
[15] = Volume of distribution in dog at 0.5 mg/kg, iv; assay type: ADME, organism-based, Canis lupus familiaris; conditions: in vivo
[16] = Oral bioavailability in rat at 1 mg/kg; assay type: ADME, organism-based; conditions: in vivo
[17] = molecular target: Histamine H1 receptor (Homo sapiens) (UniProt P35367); test: Displacement of [3H]pyrilamine from recombinant human histamine H1 receptor expressed in HEK293 cells at 10 uM measured after 60 mins by scintillation counting method; assay type: cell-based
[18] = Tmax in rat at 1 mg/kg, po; assay type: ADME, organism-based; conditions: in vivo
[19] = molecular target: D(1A) dopamine receptor (Homo sapiens) (UniProt P21728); test: Displacement of [3H]SCH23390 from recombinant human dopamine D1 receptor expressed in CHO cells at 10 uM measured after 60 mins by scintillation counting method; assay type: cell-based
D(1A) dopamine receptor (Homo sapiens), sequence (P21728 whole entry): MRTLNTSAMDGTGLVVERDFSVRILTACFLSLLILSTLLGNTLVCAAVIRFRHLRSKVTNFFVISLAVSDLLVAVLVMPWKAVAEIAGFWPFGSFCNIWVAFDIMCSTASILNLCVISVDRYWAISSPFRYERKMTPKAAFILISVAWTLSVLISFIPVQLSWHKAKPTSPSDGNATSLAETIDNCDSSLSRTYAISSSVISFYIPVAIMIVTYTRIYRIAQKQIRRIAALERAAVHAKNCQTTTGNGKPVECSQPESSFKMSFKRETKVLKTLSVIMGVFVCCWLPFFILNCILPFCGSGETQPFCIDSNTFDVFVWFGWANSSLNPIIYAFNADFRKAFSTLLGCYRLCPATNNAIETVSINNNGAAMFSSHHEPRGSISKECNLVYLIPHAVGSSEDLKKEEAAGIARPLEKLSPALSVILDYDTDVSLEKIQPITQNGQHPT

[20] = organism: Rattus norvegicus; test: Displacement of [3H]naloxone from opioid receptor in rat cerebral cortex at 10 uM measured after 40 mins by scintillation counting method
[21] = Cmax in dog at 0.5 mg/kg, iv; assay type: ADME, organism-based, Canis lupus familiaris; parameters: dose 0.5 mg/kg, route intravenous; conditions: in vivo
[22] = molecular target: 5-hydroxytryptamine receptor 4 (Homo sapiens, UniProt Q13639); test: Displacement of human recombinant 5HT4E receptor expressed in CHO cells after 60 mins by scintillation counting method; assay type: cell-based
5-hydroxytryptamine receptor 4, sequence (Q13639 whole entry): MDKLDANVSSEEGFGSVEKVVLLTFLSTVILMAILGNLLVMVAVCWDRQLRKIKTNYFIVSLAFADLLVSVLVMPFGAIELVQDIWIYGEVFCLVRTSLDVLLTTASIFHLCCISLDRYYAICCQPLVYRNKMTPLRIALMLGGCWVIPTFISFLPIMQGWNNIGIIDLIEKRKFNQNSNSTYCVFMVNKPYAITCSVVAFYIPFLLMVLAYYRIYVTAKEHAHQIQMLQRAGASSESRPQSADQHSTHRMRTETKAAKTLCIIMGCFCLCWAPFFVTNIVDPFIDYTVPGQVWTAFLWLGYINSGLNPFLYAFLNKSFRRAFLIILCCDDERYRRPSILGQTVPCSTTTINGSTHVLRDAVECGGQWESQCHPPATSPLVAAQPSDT

[23] = molecular target: 5-hydroxytryptamine receptor 1A (Homo sapiens, UniProt P08908); test: Activity at human 5HT1A receptor
5-hydroxytryptamine receptor 1A, sequence (P08908 whole entry): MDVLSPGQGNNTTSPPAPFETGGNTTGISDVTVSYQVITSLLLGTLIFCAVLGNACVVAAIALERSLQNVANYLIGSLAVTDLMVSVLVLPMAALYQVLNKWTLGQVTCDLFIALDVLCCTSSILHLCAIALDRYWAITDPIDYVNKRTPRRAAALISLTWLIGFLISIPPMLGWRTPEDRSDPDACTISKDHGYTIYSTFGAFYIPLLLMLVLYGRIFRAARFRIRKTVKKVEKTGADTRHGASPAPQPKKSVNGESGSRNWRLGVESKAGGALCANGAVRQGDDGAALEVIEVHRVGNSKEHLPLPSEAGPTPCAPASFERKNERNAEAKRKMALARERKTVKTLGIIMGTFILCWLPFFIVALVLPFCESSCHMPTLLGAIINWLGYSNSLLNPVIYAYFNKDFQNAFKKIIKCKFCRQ

[24] = Cmax in rat at 1 mg/kg, iv; assay type: ADME, organism-based; parameters: dose 1 mg/kg, route intravenous; conditions: in vivo
[25] = molecular target: 5-hydroxytryptamine receptor 1B (Homo sapiens, UniProt P28222); test: Activity at human 5HT1B receptor
5-hydroxytryptamine receptor 1B, sequence (P28222 whole entry): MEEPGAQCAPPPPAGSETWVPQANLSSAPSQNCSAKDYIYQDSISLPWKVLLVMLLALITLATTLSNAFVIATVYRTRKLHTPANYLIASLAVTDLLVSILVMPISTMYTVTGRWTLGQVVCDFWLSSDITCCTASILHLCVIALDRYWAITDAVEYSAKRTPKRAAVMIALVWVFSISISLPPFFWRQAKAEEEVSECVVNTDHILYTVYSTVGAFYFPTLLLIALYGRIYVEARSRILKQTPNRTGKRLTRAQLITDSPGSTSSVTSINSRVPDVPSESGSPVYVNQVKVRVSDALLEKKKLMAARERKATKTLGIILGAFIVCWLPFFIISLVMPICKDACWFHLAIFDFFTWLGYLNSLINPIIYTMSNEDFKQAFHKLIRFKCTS

[26] = molecular target: Histamine H2 receptor (Homo sapiens) (UniProt P25021); test: Displacement of [125I]APT from recombinant human histamine H2 receptor expressed in HEK293 cells at 10 uM measured after 120 mins by scintillation counting method; assay type: cell-based
[27] = molecular target: Metabotropic glutamate receptor 3 (Homo sapiens, UniProt Q14832); test: Antagonist activity at recombinant human mGlu3 receptor expressed in hamster AV12 cells expressing EAAT1 assessed as inhibition of glutamate-induced intracellular Ca2+ level measured after 24 hrs by FLIPR assay; assay type: functional, cell-based
[28] = molecular target: 5-hydroxytryptamine receptor 1D (Homo sapiens, UniProt P28221); test: Activity at human 5HT1D receptor
[29] = Clearance in dog at 0.5 mg/kg, iv; assay type: ADME, organism-based, Canis lupus familiaris; conditions: in vivo
[30] = molecular target: 5-hydroxytryptamine receptor 2C (Homo sapiens, UniProt P28335); test: Activity at human 5T2C receptor
5-hydroxytryptamine receptor 2C, sequence (P28335 whole entry): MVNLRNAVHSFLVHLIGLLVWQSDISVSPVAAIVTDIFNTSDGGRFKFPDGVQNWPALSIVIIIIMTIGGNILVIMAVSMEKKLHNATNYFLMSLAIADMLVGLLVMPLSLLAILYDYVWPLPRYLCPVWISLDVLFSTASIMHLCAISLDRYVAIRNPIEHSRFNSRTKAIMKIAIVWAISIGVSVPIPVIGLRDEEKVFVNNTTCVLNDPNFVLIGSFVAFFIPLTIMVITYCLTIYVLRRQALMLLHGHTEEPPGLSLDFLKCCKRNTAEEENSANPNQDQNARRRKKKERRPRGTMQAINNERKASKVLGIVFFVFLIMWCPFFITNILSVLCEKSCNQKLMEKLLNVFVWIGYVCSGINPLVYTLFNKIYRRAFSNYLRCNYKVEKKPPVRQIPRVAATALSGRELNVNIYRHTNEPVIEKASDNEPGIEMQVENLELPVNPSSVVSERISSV

[31] = molecular target: Cytochrome P450 3A4 (Homo sapiens, UniProt P08684); test: Inhibition of CYP3A4 (unknown origin); assay type: ADME

**Q.** Which Cmax [1] does the source give for `CC(=O)c1ccc(OCc2ccc(Oc3cc(-c4nn[nH]n4)ccn3)cc2)c(C)c1O` here?
**A.** Its Cmax is 78 ng/mL.

**Q.** What about the pEC50 [2] of the same molecule?
**A.** Its pEC50 is under 4.60.

**Q.** And the INH [3]?
**A.** Its INH is over 40 µM.

**Q.** And the Vd [4]?
**A.** The Vd was 2 L/kg.

**Q.** And the pKi [5]?
**A.** The pKi was under 5.27.

**Q.** What about the pIC50 [6] of the same molecule?
**A.** Its pIC50 is under 4.90.

**Q.** What about the pKi [7] of the same molecule?
**A.** Its pKi is under 5.40.

**Q.** And the half-life [8]?
**A.** The half-life was 8 h.

**Q.** What about the Activity [9] of the same molecule?
**A.** The Activity was under 40%.

**Q.** And the inhibition [10]?
**A.** The inhibition was 5.1%.

**Q.** What about the pKi [11] of the same molecule?
**A.** Its pKi is under 5.13.

**Q.** And the Emax [12]?
**A.** The Emax was 107%.

**Q.** And the half-life [13]?
**A.** The half-life was 1 h.

**Q.** What about the pKi [14] of the same molecule?
**A.** Its pKi is under 5.16.

**Q.** What about the Vd [15] of the same molecule?
**A.** The Vd was 2 L/kg.

**Q.** What about the bioavailability [16] of the same molecule?
**A.** Its bioavailability is 39%.

**Q.** And the inhibition [17]?
**A.** The inhibition was 0.7%.

**Q.** And the Tmax [18]?
**A.** The Tmax was 2.5 h.

**Q.** What about the inhibition [19] of the same molecule?
**A.** Its inhibition is 6.4%.

**Q.** What about the inhibition [20] of the same molecule?
**A.** Its inhibition is 15.1%.

**Q.** What about the Cmax [21] of the same molecule?
**A.** Its Cmax is 2540 ng/mL.

**Q.** What about the pKi [22] of the same molecule?
**A.** Its pKi is under 5.20.

**Q.** And the pKi [23]?
**A.** The pKi was under 5.52.

**Q.** And the Cmax [24]?
**A.** Its Cmax is 2160 ng/mL.

**Q.** What about the pKi [25] of the same molecule?
**A.** Its pKi is under 5.45.

**Q.** And the inhibition [26]?
**A.** The inhibition was 10.2%.

**Q.** What about the pIC50 [27] of the same molecule?
**A.** Its pIC50 is under 4.90.

**Q.** What about the pKi [28] of the same molecule?
**A.** The pKi was under 5.62.

**Q.** What about the clearance [29] of the same molecule?
**A.** The clearance was 12 mL/min/kg.

**Q.** What about the pKi [30] of the same molecule?
**A.** The pKi was under 5.10.

**Q.** And the INH [31]?
**A.** Its INH is over 40 µM.
